“Also recorded” adds a separate entry of the source. Where two headings read alike, the source gives them in different places.
Columns and labels:
[1] = system: KB-3-1 human cervical carcinoma cells; test: modulation of cisplatin uptake; format: cell-based; conditions: one hour, 5 μM cisplatin; FIG. 5
Method: Subconfluent cultures of KB-3-1 cells were incubated with [^3 H]cisplatin (cis-DDP) in culture medium or in medium containing the indicated concentrations of masoprocol as presented in FIG. 5. After one hour incubation, the medium was aspirated and the cells washed 5 times with ice cold PBS. Cells were digested overnight in 1N NaOH, at which time aliquots were used to determine protein content and radioactivity. The final concentration of cisplatin was 5 μM. Each data point represents the mean of triplicate dishes from replicate experiments. The vertical bars are +/- standard deviations.

[2] = system: MCF7/0 human breast adenocarcinoma cells; test: flow cytometry P-glycoprotein function assay of doxorubicin efflux, MCF7/0 (doxorubicin sensitive); format: cell-based
Method: The following tests were preformed to determine the effect of NDGA on efflux of doxorubicin (hereinafter sometimes referred to as DOX) for doxorubicin sensitive MCF7/0 and doxorubicin resistant MCF7/ADR human breast adenocarcinoma cells in vitro.
The cells were exposed to 50 μg/ml NDGA for 24 hrs prior to loading with DOX (doxorubicin) at 37° C. […] PBS. Flow analysis of cell efflux of DOX was collected over 30 minutes using the time parameter.
Procedure for P-Glycoprotein (PGP) Function Assay of Doxorubicin Efflux is shown hereunder.
1. […] Store at room temperature.
2. Doxorubicin (GFW=580) Make a solution of doxorubicin to contain 10 μg/ml. Store frozen at 0° C.
4. NDGA (MW=302.36) Make a solution of NDGA to contain 50 μg/ml. Store frozen at 0° C.
5. MCF7/0 (Doxorubicin sensitive) and MCF7/ADR (Doxorubicin resistant), human breast adenocarcinoma cell lines.
1. Make up 2×10^6 cells per ml in PBS. Expose 1 ml of cells to 50 μg of NDGA for 24 hrs at 37° C. prior to loading with Doxorubicin.
2. Add 1 ml of 10 μg/ml doxorubicin, mix and divide into two aliquots.
4. Incubate both tubes at 37° C. for 30 minutes.
5. Centrifuge the tubes at 37° C. for 5 minutes on a fast spin to pellet cells. Resuspend in 1 ml of buffer.
6. Run immediately on the flow cytometer. Excitation 488 nm, emission 560-600 nm. Collect forward and 90° side scatter and PMT4 linear scale. Collect 10,000-50,000 events and calculate the mean channel fluorescence (MCF) for PMT4.
7. Run both samples as close together as possible, and avoid prolonged exposure to room temperature.

[3] = system: human breast adenocarcinoma; conditions: cited from earlier work
human cancer patients = conditions: cited from earlier work
[4] = system: several types of cancer cells; conditions: Cancer Chemotherapy National Service Center; cited from earlier work
WI-38 Lung Fibroblasts = test: in vitro cytotoxicity, normal cells; format: cell-based; conditions: Homo sapiens, WI-38, 1 h; One Hour Pulse Treatment; read-out: IC50
[5] = system: Detroit 551 Skin Fibroblasts; test: in vitro cytotoxicity, normal cells; format: cell-based; conditions: Homo sapiens, read-out: IC50
[6] = system: GRC-1 multidrug resistant human cervical carcinoma cells; test: initial influx of VBL, GRC-1; format: cell-based; conditions: 50 μM masoprocol added concurrently with VBL, 3 to 24 seconds; FIG. 4a
Method: A further test was conducted to show the effect of masoprocol on the initial influx of VBL. Cells were exposed to media containing [^3 H]VBL with and without 50 μM masoprocol. After incubation times ranging from 3 seconds to 24 seconds, the media was removed. The amount of VBL taken up by the cells was determined as described in A. The data was summarized from four replicate experiments. FIG. 4apresents the results for the GRC-1 cell line, and FIG. 4b for the KB-3-1 cell line.

LOX-IMVI Melanoma cells = test: in vitro cytotoxicity anti tumor activity; format: cell-based; conditions: Homo sapiens, read-out: IC50
[7] = system: KB-3-1 human cervical carcinoma cells; test: inhibition of colony formation, KB-3-1; format: cell-based; conditions: KB 3-1, 240 h, read-out: IC50 (Masoprocol), 50% inhibition of colony formation, 10 days, 37° C., parenthesis: standard deviation
Description: To investigate whether masoprocol modulates multidrug resistance, a line of multidrug resistant (GRC-1) cells which were derived from parenteral drug sensitive human cervical carcinoma (KB-3-1) cells by transfection of the mdr1 genes were employed. Such transfection was by the method set forth in Choi, et al., Cell 53:519-529, 1989. These cell lines differ only with respect to the over-expression of P-glycoprotein. These tests were designed to examine whether masoprocol modulates tumor cell drug resistance by interfering with P-glycoprotein function. […] See, Regulation of initial vinblastine influx by P-glycoprotein, Shalinsky, et al., cited above.
Masoprocol was provided by Chemex Pharmaceuticals, Inc. (Fort Lee, N.J.). Tritiated vinblastine ([^3 H]VBL) (10 Ci mmol^-1) was purchased from Moravek Biochemicals (Brea, Calif.), stored in the dark at -80° C. and protected from light during the experiments. […]
First, cells which had been seeded at 200-300 cells/dish were incubated in media containing masoprocol or VBL. After an incubation period of 10 days at 37° C. the cells were fixed with methanol and stained with Giemsa, and the number of colonies per dish were counted and expressed as a percent of the number of colonies in control conditions. […] Parenthesis indicate standard deviations determined from replicate experiments.

[8] = system: KB-3-1 human cervical carcinoma cells; test: efflux of VBL, KB-3-1; format: cell-based; conditions: 50 μM masoprocol
Method: A further test was conducted to show the effect of masoprocol on the efflux of VBL from cells. Cells were incubated with [^3 H]VBL with or without 50 μM masoprocol for 2 hours. The medium was then replaced with drug-free medium. After incubation for various times, the amount of VBL remaining in the cells was determined as described above. The data was presented in terms of the percentage of VBL remaining at various efflux times compared to VBL in cells with an efflux time of zero. In FIGS. 3a and 3b, efflux is expressed as pmol VBL. In FIGS. 3c and 3d, efflux is expressed as percentage of VBL levels at time zero.

## C[C@H](Cc1ccc(O)c(O)c1)[C@@H](C)Cc1ccc(O)c(O)c1 [Masoprocol, meso-1,4-bis (3,4-dihydroxyphenyl)-2,3-dimethylbutane]
[1]
  increase in uptake of cisplatin: about 25%
[2]; Homo sapiens, MCF7, 24 h, read-out: % DOX increase w/NDGA
  activation at 50 µg/mL: 44.5%
[2]; sensitive cells
  DOX loading / retention / accumulation (in words): loading more DOX after NDGA treatment than controls or verapamil treated cells
[3]
  effectiveness against human breast adenocarcinoma: particularly effective
Human cancer patients; in some cases
  stimulation of tumor cell growth: in some cases caused stimulation of tumor cell growth
Human cancer patients; ingested tea made from creosote bush or pure NDGA
  effectiveness as anticancer agent: neither NDGA nor the tea were effective anticancer agents
[4]
  result in screening against cancer cells: negative results
WI-38 Lung Fibroblasts
  IC50: 159 µM
[5]; Detroit 551, 1 h, One Hour Pulse Treatment
  IC50: 62.7 µM
[5]; Detroit 551, Continuous Drug Exposure, observation at 70 hours
  IC50: 312 µM
[6]
  initial VBL uptake (influx): substantial increase in initial VBL uptake; also recorded: effective modulator of initial VBL influx; also recorded: promotes the initial uptake of VBL
LOX-IMVI Melanoma cells; 1 h, One Hour Pulse Treatment
  IC50: 38.4 µM
LOX-IMVI Melanoma cells; Continuous Drug Exposure, observation at 70 hours
  IC50: 0.08 µM
[7]
  IC50: 43.6 µM
[8]
  modulation of VBL efflux: does not modulate VBL efflux
[8]; 2 hours, FIG. 3b
  VBL levels at efflux time zero: higher in masoprocol-treated cells
[8]; FIG. 3d
  percent of VBL retained at various efflux time points: not affected by masoprocol treatment
[8]; listed as masoprocol
  modulation of VBL efflux: does not influence the rate of efflux of VBL

— patent US5541232A, “Treatment of multidrug resistant diseases” (Chemex Pharmaceuticals, Inc., priority 1994, dated 1996)
